According to US10738028B2, “Spiro three-membered ring, spiro five-membered ring peptide deformylase inhibitor and use thereof in antibacteria and anti-tumor” (priority 2016, dated 2020):

Experiments:
Assay type in all cases: cell-based
[1] = tested on: methicillin-resistant Staphylococcus aureus (MRSA); test: MIC, two-fold agar dilution (CLSI), clinical isolates; settings: for Anti-bacterial activity (MIC), strain MRSA 15-1: clinical isolate MRSA 15-1; for Anti-bacterial activity (MIC), strain MRSA 15-2: clinical isolate MRSA 15-2; for Anti-bacterial activity (MIC), strain MRSA 15-3: clinical isolate MRSA 15-3; for Anti-bacterial activity (MIC), strain MRSA 15-4: clinical isolate MRSA 15-4
In short: (§1)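 Test samples were assayed by the CLSI-recommended two-fold agar dilution method, and the minimum inhibitory concentration against each tested strain was determined.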

[2] = tested on: Escherichia coli (including ESBLs, non-ESBLs); test: as above; settings: for Anti-bacterial activity (MIC), strain ECO+ 15-1: clinical isolate ECO+ 15-1; for Anti-bacterial activity (MIC), strain ECO+ 15-2: clinical isolate ECO+ 15-2; for Anti-bacterial activity (MIC), strain ECO+ 15-3: clinical isolate ECO+ 15-3; for Anti-bacterial activity (MIC), strain ECO+ 15-4: clinical isolate ECO+ 15-4; for Anti-bacterial activity (MIC), strain ECO− 15-1: clinical isolate ECO− 15-1; for Anti-bacterial activity (MIC), strain ECO− 15-2: clinical isolate ECO− 15-2; for Anti-bacterial activity (MIC), strain ECO− 15-3: clinical isolate ECO− 15-3; for Anti-bacterial activity (MIC), strain ECO− 15-4: clinical isolate ECO− 15-4
In short: as §1

[3] = tested on: methicillin-resistant Staphylococcus epidermidis (MRSE); test: as above; settings: for Anti-bacterial activity (MIC), strain MRSE 15-1: clinical isolate MRSE 15-1; for Anti-bacterial activity (MIC), strain MRSE 15-2: clinical isolate MRSE 15-2; for Anti-bacterial activity (MIC), strain MRSE 15-3: clinical isolate MRSE 15-3; for Anti-bacterial activity (MIC), strain MRSE 15-7: clinical isolate MRSE 15-7
In short: as §1

[4] = tested on: methicillin-sensitive Staphylococcus aureus (MSSA); test: as above; settings: for Anti-bacterial activity (MIC), strain MSSA 15-3: clinical isolate MSSA 15-3; for Anti-bacterial activity (MIC), strain MSSA 15-4: clinical isolate MSSA 15-4; for Anti-bacterial activity (MIC), strain MSSA 15-5: clinical isolate MSSA 15-5; for Anti-bacterial activity (MIC), strain MSSA 15-6: clinical isolate MSSA 15-6
In short: as §1

[5] = tested on: Enterococcus faecium (EFM); test: as above; settings: for Anti-bacterial activity (MIC), strain EFM 15-1: clinical isolate EFM 15-1; for Anti-bacterial activity (MIC), strain EFM 15-2: clinical isolate EFM 15-2; for Anti-bacterial activity (MIC), strain EFM 15-3: clinical isolate EFM 15-3; for Anti-bacterial activity (MIC), strain EFM 15-4: clinical isolate EFM 15-4; for Anti-bacterial activity (MIC), strain EFM 15-5: clinical isolate EFM 15-5; for Anti-bacterial activity (MIC), strain EFM 15-6: clinical isolate EFM 15-6
In short: as §1

[6] = tested on: Streptococcus pneoumoniae (SPN); test: as above; settings: for Anti-bacterial activity (MIC), strain SPN 16-2: clinical isolate SPN 16-2; for Anti-bacterial activity (MIC), strain SPN 16-4: clinical isolate SPN 16-4
In short: as §1

[7] = tested on: Enterococcus faecalis (EFA); test: as above; settings: for Anti-bacterial activity (MIC), strain EFA 15-1: clinical isolate EFA 15-1; for Anti-bacterial activity (MIC), strain EFA 15-2: clinical isolate EFA 15-2; for Anti-bacterial activity (MIC), strain EFA 15-3: clinical isolate EFA 15-3; for Anti-bacterial activity (MIC), strain EFA 15-4: clinical isolate EFA 15-4; for Anti-bacterial activity (MIC), strain EFA 15-5: clinical isolate EFA 15-5; for Anti-bacterial activity (MIC), strain EFA 15-6: clinical isolate EFA 15-6; for Anti-bacterial activity (MIC), strain EFA 15-9: clinical isolate EFA 15-9
In short: as §1

[8] = tested on: Moraxella catarrhalis (BCA); test: as above; settings: for Anti-bacterial activity (MIC), strain BCA 14-1: clinical isolate BCA 14-1; for Anti-bacterial activity (MIC), strain BCA 14-4: clinical isolate BCA 14-4; for Anti-bacterial activity (MIC), strain BCA 14-5: clinical isolate BCA 14-5; for Anti-bacterial activity (MIC), strain BCA 14-6: clinical isolate BCA 14-6; for Anti-bacterial activity (MIC), strain BCA 14-7: clinical isolate BCA 14-7; for Anti-bacterial activity (MIC), strain BCA 14-8: clinical isolate BCA 14-8; for Anti-bacterial activity (MIC), strain BCA 14-10: clinical isolate BCA 14-10
In short: as §1

[9] = tested on: methicillin-sensitive Staphylococcus epidermidis (MSSE); test: as above; settings: for Anti-bacterial activity (MIC), strain MSSE 15-3: clinical isolate MSSE 15-3; for Anti-bacterial activity (MIC), strain MSSE 15-4: clinical isolate MSSE 15-4; for Anti-bacterial activity (MIC), strain MSSE 15-5: clinical isolate MSSE 15-5; for Anti-bacterial activity (MIC), strain MSSE 15-6: clinical isolate MSSE 15-6
In short: as §1

[10] = tested on: HCT-116 colorectal cancer cell line; test: CCK-8 proliferation inhibition; settings: Homo sapiens, HCT-116, 72 h, concentration of 30 μM; 72 hours; CCK-8; read-out: HCT116 inhibition rate/%
In short: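 Cells seeded at 2000 cells/well, cultured overnight at 37 °C, 5% CO2, then exposed to compound (DMSO; control 1‰ DMSO) for 72 h in McCoy's 5A with 10% newborn bovine serum. Viability read with 1:10 diluted CCK-8.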

CCCC[C@H](CC(=O)NO)C(=O)N1CC2(CC2)C[C@H]1C(=O)NC1CC1 [Example 50, (S)—N-cyclopropyl-5-((R)-2-(2-(hydroxyamino)-2-oxoethyl)hexanoyl)-5-azaspiro[2.4]heptane-6-carboxamide]
-11%: inhibition at 30 µM [10]
> 32 µg/mL: Anti-bacterial activity (MIC), strain MRSA 15-2 [1] | Anti-bacterial activity (MIC), strain MRSA 15-3 [1] | Anti-bacterial activity (MIC), strain MRSA 15-4 [1] | Anti-bacterial activity (MIC), strain ECO+ 15-1 [2] | Anti-bacterial activity (MIC), strain ECO+ 15-2 [2] | Anti-bacterial activity (MIC), strain ECO+ 15-3 [2] | Anti-bacterial activity (MIC), strain ECO+ 15-4 [2] | Anti-bacterial activity (MIC), strain ECO− 15-1 [2] | Anti-bacterial activity (MIC), strain ECO− 15-2 [2] | Anti-bacterial activity (MIC), strain ECO− 15-3 [2] | Anti-bacterial activity (MIC), strain ECO− 15-4 [2] | Anti-bacterial activity (MIC), strain MRSE 15-1 [3] | Anti-bacterial activity (MIC), strain MRSE 15-2 [3] | Anti-bacterial activity (MIC), strain MRSE 15-3 [3] | Anti-bacterial activity (MIC), strain MRSE 15-7 [3] | Anti-bacterial activity (MIC), strain MSSA 15-3 [4] | Anti-bacterial activity (MIC), strain MSSA 15-4 [4] | Anti-bacterial activity (MIC), strain MSSA 15-5 [4] | Anti-bacterial activity (MIC), strain MSSA 15-6 [4] | Anti-bacterial activity (MIC), strain EFM 15-1 [5] | Anti-bacterial activity (MIC), strain EFM 15-2 [5] | Anti-bacterial activity (MIC), strain EFM 15-3 [5] | Anti-bacterial activity (MIC), strain EFM 15-4 [5] | Anti-bacterial activity (MIC), strain EFM 15-5 [5] | Anti-bacterial activity (MIC), strain EFM 15-6 [5] | Anti-bacterial activity (MIC), strain SPN 16-2 [6] | Anti-bacterial activity (MIC), strain SPN 16-4 [6] | Anti-bacterial activity (MIC), strain EFA 15-1 [7] | Anti-bacterial activity (MIC), strain EFA 15-2 [7] | Anti-bacterial activity (MIC), strain EFA 15-3 [7] | Anti-bacterial activity (MIC), strain EFA 15-4 [7] | Anti-bacterial activity (MIC), strain EFA 15-5 [7] | Anti-bacterial activity (MIC), strain EFA 15-6 [7] | Anti-bacterial activity (MIC), strain EFA 15-9 [7] | Anti-bacterial activity (MIC), strain BCA 14-1 [8] | Anti-bacterial activity (MIC), strain BCA 14-4 [8] | Anti-bacterial activity (MIC), strain BCA 14-5 [8] | Anti-bacterial activity (MIC), strain BCA 14-6 [8] | Anti-bacterial activity (MIC), strain BCA 14-7 [8] | Anti-bacterial activity (MIC), strain BCA 14-8 [8] | Anti-bacterial activity (MIC), strain BCA 14-10 [8] | Anti-bacterial activity (MIC), strain MSSE 15-3 [9] | Anti-bacterial activity (MIC), strain MSSE 15-4 [9] | Anti-bacterial activity (MIC), strain MSSE 15-5 [9] | Anti-bacterial activity (MIC), strain MSSE 15-6 [9]
> 23 µg/mL: Anti-bacterial activity (MIC), strain MRSA 15-1 [1]

CCCC[C@H](CC(=O)NO)C(=O)N1CC2(CC2)C[C@H]1C(=O)Nc1cnn(CCN(C)C)c1 [Example 52, (S)—N-(1-(2-(dimethylamino)ethyl)-1H-pyrazol-4-yl)-5-((R)-2-(2-(hydroxyamino)-2-oxoethyl)hexanoyl)-5-spiro[2.4]heptane-6-carboxamide]
8 µg/mL: Anti-bacterial activity (MIC), strain SPN 16-2 [6] | Anti-bacterial activity (MIC), strain SPN 16-4 [6]
16 µg/mL: Anti-bacterial activity (MIC), strain EFM 15-5 [5] | Anti-bacterial activity (MIC), strain EFM 15-6 [5]
> 32 µg/mL: Anti-bacterial activity (MIC), strain MRSA 15-1 [1] | Anti-bacterial activity (MIC), strain MRSA 15-2 [1] | Anti-bacterial activity (MIC), strain MRSA 15-3 [1] | Anti-bacterial activity (MIC), strain MRSA 15-4 [1] | Anti-bacterial activity (MIC), strain ECO+ 15-1 [2] | Anti-bacterial activity (MIC), strain ECO+ 15-2 [2] | Anti-bacterial activity (MIC), strain ECO+ 15-3 [2] | Anti-bacterial activity (MIC), strain ECO+ 15-4 [2] | Anti-bacterial activity (MIC), strain ECO− 15-1 [2] | Anti-bacterial activity (MIC), strain ECO− 15-2 [2] | Anti-bacterial activity (MIC), strain ECO− 15-3 [2] | Anti-bacterial activity (MIC), strain ECO− 15-4 [2] | Anti-bacterial activity (MIC), strain MRSE 15-1 [3] | Anti-bacterial activity (MIC), strain MRSE 15-2 [3] | Anti-bacterial activity (MIC), strain MRSE 15-3 [3] | Anti-bacterial activity (MIC), strain MRSE 15-7 [3] | Anti-bacterial activity (MIC), strain MSSA 15-3 [4] | Anti-bacterial activity (MIC), strain MSSA 15-4 [4] | Anti-bacterial activity (MIC), strain MSSA 15-5 [4] | Anti-bacterial activity (MIC), strain MSSA 15-6 [4] | Anti-bacterial activity (MIC), strain EFM 15-1 [5] | Anti-bacterial activity (MIC), strain EFM 15-2 [5] | Anti-bacterial activity (MIC), strain EFM 15-3 [5] | Anti-bacterial activity (MIC), strain EFM 15-4 [5] | Anti-bacterial activity (MIC), strain EFA 15-1 [7] | Anti-bacterial activity (MIC), strain EFA 15-2 [7] | Anti-bacterial activity (MIC), strain EFA 15-3 [7] | Anti-bacterial activity (MIC), strain EFA 15-4 [7] | Anti-bacterial activity (MIC), strain EFA 15-5 [7] | Anti-bacterial activity (MIC), strain EFA 15-6 [7] | Anti-bacterial activity (MIC), strain EFA 15-9 [7] | Anti-bacterial activity (MIC), strain BCA 14-1 [8] | Anti-bacterial activity (MIC), strain BCA 14-4 [8] | Anti-bacterial activity (MIC), strain BCA 14-5 [8] | Anti-bacterial activity (MIC), strain BCA 14-6 [8] | Anti-bacterial activity (MIC), strain BCA 14-7 [8] | Anti-bacterial activity (MIC), strain BCA 14-8 [8] | Anti-bacterial activity (MIC), strain BCA 14-10 [8] | Anti-bacterial activity (MIC), strain MSSE 15-3 [9] | Anti-bacterial activity (MIC), strain MSSE 15-4 [9] | Anti-bacterial activity (MIC), strain MSSE 15-5 [9] | Anti-bacterial activity (MIC), strain MSSE 15-6 [9]
-1%: inhibition at 30 µM [10]
